# Source: US11926580B2, “Hydropersulfide precursors” (THE JOHNS HOPKINS UNIVERSITY, priority 2018, dated 2024)
# Values joined by “and” are separate entries in the source; they are usually repeats but may differ in a detail not shown here. Identical values can stand only once.
# Key:
# [1] = UPLC-MS analysis of RSSH trapping with N-ethylmaleimide; type: physicochemical; conditions: for RSSH generation (RSS-NEM adduct formation): NEM trap
# Experimental: FIGS. 2a and 2b provide graphs of (a) UPLC-MS chromatograms of RSSH generation from 4d (200 μM) in the presence of NEM (4 mM) incubated in pH 7.4 ammonium bicarbonate (100 mM) with DTPA (100 μM) at 37° C. A peak at 3.7 min corresponding to N-ethylmaleamic acid (NEMA), derived from NEM hydrolysis, was observed under these conditions (see SI); (b) MS spectrum (ESI+ mode) of the product eluting at 5.06 min corresponding to 5a with m/z 349.0885 (expected m/z 349.0886).
# FIG. 5 provides a graph of UPLC-MS chromatograms of RSSH generation from compound 1 (1 mM) in the presence of NEM (5 mM) incubated in pH 7.4 ammonium bicarbonate buffer containing DTPA (100 μM) for 30 min at 37° C. The asterisk indicates the methyl ester analogue of dialkyl trisulfide 2, which was also formed due to the presence of minor amount of methyl ester analogue of 1. A peak at 3.7 min corresponding to N-ethylmaleamic acid (NEMA), derived from NEM hydrolysis, was observed under these conditions.
# RSSH trapping in the presence of N-ethylmaleimide (NEM) was carried out with a Waters Acquity/Xevo-G2 UPLC-MS system equipped with an ACQUITY UPLC BEH C18 column (2.1 mm×50 mm, 1.7 μm). Typically, RSSH precursor (1 eq) was incubated with NEM (5 to 20 eq) in freshly prepared pH 7 4 ammonium bicarbonate buffer (100 mM) containing DTPA (100 μM) at 37° C. An aliquot of the reaction mixture (300 μL) was withdrawn at specified time points, quenched with 0.25% formic acid (300 μL), and filtered through a 0.22 μm filter. The samples were then loaded into vials in an autosampler maintained at 4° C. and analyzed using UPLC-MS as follows: Mobile phase: 0-1 min 90% water+0% ACN+10% formic acid (0.1%); 1-7.5 min gradient up to 10% water+80% ACN+10% formic acid (0.1%); 7.5-8.4 min 10% water+80% ACN+10% formic acid (0.1%); 8.4-8.5 min gradient up to 90% water+0% ACN+10% formic acid (0.1%), 8.5-10 min 90% water+0% ACN+10% formic acid (0.1%). Flow rate=0.3 mL min^−1. The mass signals for products of RSSH trapping with NEM were obtained via deconvolution using MassLynx 4.1 software.
# To a solution of NEM (5 mM) in pH 7 4 ammonium bicarbonate (100 mM) with DTPA (100 μM) in a 20-mL scintillation vial, hydropersulfide precursor 1 (1 mM, total reaction volume 3 mL) was added. The resulting mixture was incubated at 37° C. for 30 min. An aliquot of 300 μL reaction mixture was withdrawn, quenched with 300 μL of formic acid (0.25%) and analyzed using UPLC-MS.
# [2] = Kinetics of RSSH generation by 1H NMR with NEM trapping; type: physicochemical; conditions: 10% D2O, 37° C.; for half-life at 1 mM: phosphate buffer, NEM, pH 7.4 buffer, read-out: half-life of precursor; for t1//2 (mm) / Hydropersulfide Yield (%) (RSS-NEM adduct): precursor 1 mM, NEM 20 mM, pH 7.4 phosphate buffer; for Hydropersulfide Yield (%) (RSS-NEM adduct): based upon % precursor consumed
# Experimental: FIGS. 3a and 3b provide graphs of (a) Stacked ^1H NMR spectra showing the decomposition of precursor 4d (1 mM) with NEM (20 mM) in 10% D2O, phosphate buffer (PB), pH 7.4 at 37° C. to produce RSS-NEM adduct 5a; Precursor 4d was introduced to a solution of NEM in PB at t=0 min and following equilibration and shimming, the first 1H NMR spectrum was obtained after 6 min.; and (b) The kinetics of decomposition of 4d (circles represent the —CH3 protons (Ha) of the precursor) and formation of 5a (squares represent the diasterotopic protons (Hb) of the succinimide ring of the two product diastereomers).
# Next, ^1H NMR spectroscopy was used to monitor the kinetics of RSSH generation from 4d by trapping with NEM in 10% D2O, pH 7.4 buffer containing DMSO as an internal standard at 37° C. An increase in the peak intensity attributed to one of the diasterotopic protons of the succinimide ring of the two product diastereomers (Hb, δ2.99-2.91 ppm) was observed (FIG. 3a). The other diasterotopic proton (Hc, δ3.30-3.21 ppm) overlaps with N-ethylmaleamic acid (NEMA), a product derived from NEM hydrolysis. Similarly, the intensity of two methyl group protons of precursor 4d (δ1.44 and 1.41 ppm) decreased as four methyl group protons of the two diastereomers of 5a (Ha, δ1.40, 1.37 ppm and 1.40, 1.34 ppm) increased, supporting the clean conversion of 4d to 5a. The ^1H NMR peak assignments for 5a are consistent with the RSS-NEM adduct formed during S-methoxycarbonyl penicillamine disulfide (MCPD) decomposition (Scheme 1, eq. 3) in the presence of NEM.
# All starting materials were of reagent grade and used without further purification. N-acetyl-D-penicillamine, N-ethylmaleimide, N-ethylmaleamic acid, and phenylcyanamide were purchased from Sigma-Aldrich and used without further purification. Thiourea and N-substituted thioureas were purchased from Alfa Aesar and Oakwood Chemicals. Deuterated solvents (Cambridge Isotope Laboratories) were used for NMR spectroscopic analyses. NMR spectra were obtained on a 400 MHz FT-NMR spectrometer. All chemical shifts are reported in parts per million (ppm) relative to residual CHCl3 (7.26 ppm for ^1H, 77.2 ppm for ^13C), residual H2O (4.79 ppm for ^1H), residual DMSO (2.50 ppm for ^1H, 39.5 for ^13C), or residual MeOH (3.31 ppm for ^1H, 49.2 ppm for ^13C). The kinetics of RSSH generation were measured using a Varian Inova 800 MHz spectrometer. UPLC-MS analysis was carried out with a Waters Acquity/Xevo-G2 UPLC-MS system equipped with an ACQUITY UPLC BEH C18 column (2.1 mm×50 mm, 1.7 μm). The mass signals for products of hydropersulfide trapping with NEM were obtained via deconvolution using MassLynx 4.1 software. The pH measurements were performed using a Fisher Scientific Accumet AB15 pH-meter. Analytical thin layer chromatography (TLC) was performed on Sigma-Aldrich silica gel on TLC A1 foils with fluorescent indicator F254 plates. Visualization was accomplished with UV light (254 nm) or staining with KMnO4. Flash column chromatography was performed using SiliaFlash P60 (230-400 mesh) silica gel. Melting points were recorded using MEL-TEMP® capillary melting point apparatus and are uncorrected.
# [3] = as above; type: physicochemical; conditions: pH 7.4 buffer with 20% MeOD
# cardiomyocyte H9c2 cells [4] = assay: Cytotoxicity / cell viability assay with Cell Counting Kit-8; type: cell-based; conditions: up to 200 μM, 24 h, CCK-8
# Experimental: (§1) FIGS. 6a and 6b provide graphs of (a) the cell viability of cardiomyocyte H9c2 cells following incubation of the RSSH precursor 4d (50 μM) and phenylcynamide (200 μM) for 24 h; and (b) the cytoprotective effects of the RSSH precursor 4d observed following pretreatment of H9c2 cells with either 4d (50 μM) or phenylcynamide (200 μM) for 2 h, followed by hydrogen peroxide (200 μM) treatment for 2 h. Quantification of cell viability was carried out using Cell Counting Kit-8 (CCK-8). Results are expressed as the mean±SEM (n=6).
# The cytotoxicity and impact on cell viability of the hydropersulfide (RSSH) precursor 4d have been examined using the cardiomyocyte H9C2 cell line and Cell Counting Kit-8 (CCK-8). A cell viability assay reveled that 4d was not cytotoxic at 50 μM ([…]).
# cardiomyocyte H9c2 cells [5] = assay: Cytoprotection against hydrogen peroxide-induced cytotoxicity; type: cell-based; conditions: pretreatment 2 h (4d 50 μM; phenyl cyanamide 200 μM), then H2O2 200 μM 2 h, CCK-8
# Experimental: as §1
# Since hydropersulfides are reported to mitigate oxidative stress, the ability of RSSH precursor 4d to protect cardiomyocyte H9c2 cells from cytotoxicity induced by hydrogen peroxide (H2O2) was tested.
SMILES,"RSSH generation (RSS-NEM adduct formation) ([1]; pH 7.4 buffer, 37° C., UPLC-MS)",melting point,half-life at 1 mM [2],t1//2 (mm) [2],Hydropersulfide Yield (%) (RSS-NEM adduct) [2],other results
"CC(=O)NC(CSSC(=N)N)C(=O)O.Cl (centres unmarked) [Precursor 1, ((2-acetamido-2-carboxyethyl)disulfaneyl)(amino)methaniminium chloride]",no evidence of persulfide-NEM adduct formation,70 to 72 °C,–,–,–,"disappearance of precursor ([1]; 1 mM with NEM 5 mM, pH 7.4 buffer, 37° C., 30 min): complete disappearance"
"CC(=O)NC(C(=O)O)C(C)(C)SSC(=N)N.Cl (centres unmarked) [Precursor 4a, ((1-acetamido-1-carboxy-2-methylpropan-2-yl)disulfaneyl)(amino)methaniminium chloride]",formation of RSS-NEM 5a,154 to 156 °C,–,–,–,–
"CNC(=N)SSC(C)(C)C(NC(C)=O)C(=O)O.Cl (centres unmarked) [Precursor 4b, ((1-acetamido-1-carboxy-2-methylpropan-2-yl)disulfaneyl)(methylamino) methaniminium chloride]",reduced compared with that from 4a,153 to 155 °C,–,–,–,–
"COC(=O)C(NC(C)=O)C(C)(C)SSC(=N)N.Cl (centres unmarked) [Precursor 4c, ((3-acetamido-4-methoxy-2-methyl-4-oxobutan-2-yl)disulfaneyl)(amino)methaniminium chloride]",–,190 to 192 °C,–,–,–,"RSS-NEM adduct 5b yield ([1]; decomposition in the presence of NEM, UPLC-MS): less than 50%"
"COc1ccc(NC(=N)SSC(C)(C)C(NC(C)=O)C(=O)O)cc1.Cl (centres unmarked) [Precursor 4e, ((1-acetamido-1-carboxy-2-methylpropan-2-yl)disulfaneyl)((4-methoxyphenyl)amino) methaniminium chloride]",–,142 to 144 °C,5 min,5.0 ± 0.5 min,75% and 75 ± 2%,–
"CC(=O)NC(C(=O)O)C(C)(C)SSC(=N)Nc1ccccc1Cl.Cl (centres unmarked) [Precursor 4f, ((1-acetamido-1-carboxy-2-methylpropan-2-yl)disulfaneyl)((2-chlorophenyl)amino) methaniminium chloride]",–,152 to 154 °C,17.3 min,173 ± 0.4 min,95% and 95 ± 2%,–
"CC(=O)NC(C(=O)O)C(C)(C)SSC(=N)Nc1ccc(Cl)cc1.Cl (centres unmarked) [Precursor 4g, ((1-acetamido-1-carboxy-2-methylpropan-2-yl)disulfaneyl)((4-chlorophenyl)amino) methaniminium chloride]",–,143 to 145 °C,9.3 min,9.3 ± 0.6 min,91% and 91 ± 1%,–
"CC(=O)NC(C(=O)O)C(C)(C)SSC(=N)Nc1ccc(C(F)(F)F)cc1.Cl (centres unmarked) [Precursor 4h, ((1-acetamido-1-carboxy-2-methylpropan-2-yl)disulfaneyl)((4-(trifluoromethyl)phenyl)amino)methaniminium chloride]",–,151 to 153 °C,–,–,–,"Hydropersulfide Yield (%) (RSS-NEM adduct) ([3]; NEM, 37° C.): 95% and 95 ± 2^d %; t1//2 (mm) ([3]; NEM, 37° C.): 6.8 ± 0.2 min; half-life ([3]; pH 7.4, read-out: half-life of precursor): 6.8 min"
"CC(C)(C)SSC(=N)Nc1ccccc1.Cl [Precursor 9, (t-butyldisulfaneyl)(phenylamino)methaniminium chloride]",–,–,17.3 min,–,97%,–
"N#CNc1ccccc1 [phenyl cyanamide, reference compound]",–,–,–,–,–,tolerability (cell viability) (cardiomyocyte H9c2 cells [4]): well tolerated; cytoprotection from H2O2-induced cytotoxicity (cardiomyocyte H9c2 cells [5]): did not protect
